The text below walks through data of patent US11285144B2, “Use of CDK8 inhibitors to treat diseases of inflammation and autoimmunity” (THE BROAD INSTITUTE, INC., priority 2016, dated 2022).

For series [1], the system named is BMDMs. Put plainly: Transcriptional profiling of stimulated BMDMs. The format is cell-based, mouse. The method, then:
To define systematically the role of CDK8 during innate immune activation, the transcriptional responses elicited by dCA or BRD6989 following stimulation of BMDMs were profiled with a panel of 10 microbial ligands or Sendai virus for time points from 15 min to 4 hours. BMDMs were chosen for these experiments because, like human and mouse DCs, they upregulate IL-10 in response to CDK8 inhibition (FIG. 5c), and they have been previously studied using the multiplexed pathway reporter assay described below (O'Connell, et al., Cell Syst 2:323-34, 2016). In this experiment, the transcriptional responses elicited by BRD6989 and dCA were highly correlated (FIG. 12a), again supporting CDK8 as a principle cellular target of BRD6989.

In another series the test system is R848-stimulated BMDCs. Put plainly: IL-10 mRNA levels in BMDCs following R848 stimulation. Type of series: cell-based, mouse. The following applies: pre-treatment, then R848 stimulation. The method, then: FIG. 5—Cellular activities of the IL-10 hit BRD6989. […] (d) Effect of BRD6989 on IL-10 production in human DCs stimulated with R848 (each point corresponds to mean±S.D.; n=3 biological replicates from 1 independent experiment using cells derived from 1 donor). (e) Chemical structure of the pan-SIK inhibitor HG-9-91-01. (f) Effect of pre-treating BMDCs with HG-9-91-01 (0.5 μM) or BRD6989 (5 μM) on IL-10 mRNA levels following stimulation with R848 (each point corresponds to mean±S.D.; n=4 biological replicates from 1 independent experiment; *, P<0.05; ***, P<0.001 using unpaired, two-tailed Student's t test). Data from all panels is representative of at least 2 independent experiments.
Based on its ability to selectively potentiate IL-10 production by a mechanism that appears temporally distinct from CREB activation, BRD6989 was prioritized for MOA studies.

The subject of series [2] is Zymosan A-stimulated BMDCs. Briefly: Viability of zymosan A-stimulated BMDCs. The format is cell-based, mouse. The text has this:
(§1) The pyridinyl tetrahydroquinoline BRD6989 (10) emerged as a prioritized hit in the screen (FIG. 2a and Table 2). […] Thus, BRD6989 enhances IL-10 production in activated human and murine macrophages and dendritic cells by a mechanism that appears most pronounced following stimulation of toll-like receptors-7 (TLR7) and TLR8 by R848.

Series [3] deals with mouse bone marrow-derived macrophages (BMDMs). Briefly: IL-10 production in BMDMs activated with Zymosan A or R848. Type of series: cell-based.
Excerpt: as §1

Series [4] concerns BMDMs. Briefly: TF-Seq pathway reporter assay in BMDMs. Type of series: cell-based, mouse. The method, then:
To identify CDK8-responsive signaling pathways, an integrative genomics approach termed transcription factor sequencing (TF-Seq) was applied, in which consensus transcription factor binding sites drive expression of 58 reporter constructs bearing unique sequence tags (O'Connell et al., Cell Syst 2:323-34, 2016).
Given that c-Jun's ability to activate transcription is tightly regulated by phosphorylation, it was determined whether CDK8 inhibition affects c-Jun phosphorylation in activated BMDCs.

Entries after “also recorded” stand apart in the source; their conditions may differ.

As to `CC1CCc2nc(N)c(C#N)c(-c3cccnc3)c2C1` (stereo not drawn) [BRD6989], in the series with BMDMs [1], the “expression of interferon-inducible genes Ifit2, Cxcl10 and Rsad2” value is “reduced expression of the interferon-inducible genes Ifit2, Cxcl10 and Rsad2”. Besides, the “IL-10 mRNA levels” value in the series on R848-stimulated BMDCs was “sustained increase beginning at 4 hours and extending to 24 hours”. For the same compound, the cell viability entry in series [2] is “only modestly reducing cell viability; also recorded: does not significantly reduce the viability”. The IL-10 production result in series [3] is listed as “increased IL-10 production; also recorded: up-regulates IL-10 production”. The “STAT1:STAT2 reporter activity” value in the series with BMDMs [4] (2 hours after stimulation of BMDMs) is listed as “suppressed induction of STAT1:STAT2 activity”. In addition, the NF-κB activation entry with BMDMs [4] (all stimuli tested) is recorded as “suppressed NF-κB activation to a varying degree”.
